Experimental data from patent US20130029973A1, “TETRAHYDROBENZOTHIOPHENE COMPOUND” (ASTELLAS PHARMA INC., priority 2010, published 2013).

Key:
[1] = molecular target: T1, rat NPT-IIb (Rattus norvegicus, UniProt Q9JJ09); assay: 33P phosphate uptake inhibiting action of rat NPT-IIb expressing cell; type: cell-based; conditions: HEK293; evaluation concentration 1 μM; 33P uptake in rat NPT-IIb stably expressing 293 cells; read-out: Rat NPT-IIb inhibitory rate (%)
T1 construct: rat NPT-IIb ORF was cloned into p3×FLAG-CMV-10; 3xFLAG (N); expressed in transfected cells
T1 sequence (Q9JJ09 1-695): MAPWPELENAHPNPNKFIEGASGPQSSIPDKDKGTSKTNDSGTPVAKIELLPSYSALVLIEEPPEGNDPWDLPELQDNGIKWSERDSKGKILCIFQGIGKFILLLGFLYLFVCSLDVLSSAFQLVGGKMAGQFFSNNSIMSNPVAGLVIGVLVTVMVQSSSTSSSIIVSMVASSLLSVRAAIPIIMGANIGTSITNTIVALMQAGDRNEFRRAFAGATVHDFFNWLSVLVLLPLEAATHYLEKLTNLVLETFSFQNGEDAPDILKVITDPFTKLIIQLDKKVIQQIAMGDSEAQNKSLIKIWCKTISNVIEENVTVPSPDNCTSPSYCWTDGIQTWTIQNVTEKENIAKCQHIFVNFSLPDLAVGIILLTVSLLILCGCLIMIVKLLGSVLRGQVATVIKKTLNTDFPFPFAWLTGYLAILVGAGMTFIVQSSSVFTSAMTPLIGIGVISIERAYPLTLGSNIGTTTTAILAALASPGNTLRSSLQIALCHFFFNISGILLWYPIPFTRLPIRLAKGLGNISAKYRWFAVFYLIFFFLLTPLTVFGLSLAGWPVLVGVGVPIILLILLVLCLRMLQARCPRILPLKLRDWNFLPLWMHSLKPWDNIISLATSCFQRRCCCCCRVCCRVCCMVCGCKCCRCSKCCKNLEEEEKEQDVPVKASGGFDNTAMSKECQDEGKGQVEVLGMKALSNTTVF
Excerpt: Test Example 1: ^33P Phosphate Uptake Inhibiting Action of Rat NPT-IIb Expressing Cell
Preparation of Rat NPT-IIb Expressing Cell
Using rat small intestine cDNA library as a template, rat NPT-IIb ORF was cloned into p3×FLAG-CMV-10 by PCR according to a standard method. Then, the cloned rat NPT-IIb expressing plasmid was transfected into 293 cells, and G418 was used to obtain a rat NPT-11b-stably expressing cell line.
Evaluation System on Inhibition of Phosphate Uptake into Rat NPT-IIb Expressing Cell
The rat NPT-Hb expressing cells were seeded into a 96-well plate and incubated overnight. The medium was taken out and washed with buffer A (137 mM N-methyl-D-glucamine, 5.4 mM KCl, 2.8 mM CaCl2, 1.2 mM MgCl2, 10 mM HEPES (adjusted to pH 7.4 with HCl)), and then buffer B (137 mM NaCl, 5.4 mM KCl, 2.8 mM CaCl2, 1.2 mM MgCl2, 0.1 mM KH2PO4, 10 mM HEPES (adjusted to pH 7.4 with KOH)) was added thereto. Then, a compound having 10-fold higher concentration relative to the evaluation concentration was prepared by dilution with the buffer B and added thereto, followed by incubation in CO2 incubator. Buffer B supplemented 50 μCi/mL ^33P was added thereto, followed by further incubation in a CO2 incubator. After the reaction, the buffer was taken out and the cells were washed with buffer C (137 mM NaCl, 10 mM Tris/HCl pH 7.2). Then, Microscint-20 was added thereto and ^33P uptake was measured by using TopCount. The inhibitory rate was determined according to the following equation.
Inhibitory rate (%)=(1−(^33P uptake of drug-treated well)/(^33P uptake of DMSO-added well))×100
For several compounds of the formula (I), rat NPT-11b inhibitory activity at a pharmacological evaluation concentration of 1 μM is shown in Table 1. Here, Ex represents Example No. as denoted below (this shall apply hereinafter).

[2] = tested on: orally 32P phosphate loaded rats; assay: Blood radioactivity increase inhibiting action in orally 32P phosphate loaded rats (phosphate absorption inhibitory action); type: in vivo; conditions: Rattus norvegicus, 0.5 h; 3 mg/kg oral, male Wistar rats; from serum radioactivity AUC0-30min vs control group; read-out: Phosphate absorption inhibitory rate (%)
Method: Blood Radioactivity Increase Inhibiting Action in Orally ^32P Phosphate Loaded Rats (Phosphate Absorption Inhibitory Action)
Male Wistar rats (6 to 7 weeks old) were fasted for 24 hours and used as experimental animals. The compound was dissolved or suspended with a solvent, and was used at a concentration of 0.6 mg/mL. The compound-administered animals were forcibly orally administered with the compound at a dose of 3 mg/kg. Control-group animals were administered a solvent containing no compound at a dose of 5 mL/kg. After 5 minutes from administration of the compound or from administration of the solvent, a ^32P-containing phosphate solution (8.3 mM NaH2PO4) was orally administered thereto at a dose of 7.2 mL/kg. After 15 minutes and 30 minutes, the blood was taken from the orbital venous plexus and the serum was collected. Radioactivity in 0.1 mL of the serum was measured by a liquid scintillation counter. AUC0-30min calculated from the measured counts was considered as a phosphate absorption amount. The phosphate absorption inhibitory rate was determined from the AUC0-30min value according to the following equation.
Phosphate absorption inhibitory rate (%)=(1−Phosphate absorption count of compound-administered group/Phosphate absorption count of control group)×100
As a result, it was confirmed that several compounds of the formula (I) have an intestinal phosphate absorption inhibitory action. With the several compounds of the formula (I), the phosphate absorption inhibitory rates at a pharmacological evaluation dose of 3 mg/kg are shown in Table 2.

SMILES | inhibition at 1 µM [1] [%] | melting point [°C] | inhibition in vivo at 3 mg/kg [2] [%]
CCN([C@H]1CC[C@H](C(=O)O)CC1)S(=O)(=O)c1cccc(C(=O)Nc2sc3c(c2C(=O)Nc2ccc(CCCc4ccc(C(=O)O)cc4)cc2)CCCC3)c1 [Example 23, 4-{3-[4-({[2-({3-[(trans-4-carboxycyclohexyl)(ethyl)sulfamoyl]benzoyl}amino)-4,5,6,7-tetrahydro-1-benzothiophen-3-yl]carbonyl}amino)phenyl]propyl}benzoic acid] | 86 | 178.5 | ≥ 60
O=C(O)CCCCN(C1CC1)S(=O)(=O)c1cccc(C(=O)Nc2sc3c(c2C(=O)Nc2ccc(CCc4ccc(C(=O)O)cc4)cc2)CCCC3)c1 [Example 34, 4-{2-[4-({[2-({3-[(4-carboxybutyl)(cyclopropyl)sulfamoyl]benzoyl}amino)-4,5,6,7-tetrahydro-1-benzothiophen-3-yl]carbonyl}amino)phenyl]ethyl}benzoic acid] | 80 | 220.1 | ≥ 60
